According to patent US20020151459A1, “Methods for identifying compounds useful for inhibiting farnesyl diphosphate synthase” (Merck & Co., Inc., priority 2000, published 2002):
Entries after “also recorded” stand apart in the source; their conditions may differ.

Assays:
[1] = target: T1, rat liver squalene synthase (Rattus norvegicus, UniProt Q02769); conditions: cited from earlier work
T1 construct: host or cells: rat liver
T1 sequence (Q02769 1-416): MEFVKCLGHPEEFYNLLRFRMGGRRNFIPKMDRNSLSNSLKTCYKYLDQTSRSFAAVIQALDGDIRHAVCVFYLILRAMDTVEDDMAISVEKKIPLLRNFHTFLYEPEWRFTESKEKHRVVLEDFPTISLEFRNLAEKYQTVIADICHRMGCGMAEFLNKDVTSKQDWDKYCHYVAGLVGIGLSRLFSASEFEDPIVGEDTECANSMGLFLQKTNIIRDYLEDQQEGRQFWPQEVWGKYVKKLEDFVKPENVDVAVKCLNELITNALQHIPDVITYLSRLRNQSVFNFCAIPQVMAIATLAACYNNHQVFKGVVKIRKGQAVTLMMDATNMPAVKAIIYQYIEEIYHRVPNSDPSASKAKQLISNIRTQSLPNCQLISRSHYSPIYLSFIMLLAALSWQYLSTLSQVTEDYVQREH

[2] = target: geranylgeranyl protein transferase II (GGTase II) (Homo sapiens, UniProt P53611+Q92696)
[3] = target: T2, human recombinant farnesyl diphosphate synthase (Homo sapiens, UniProt P14324)
T2 sequence (P14324 67-419 limits assumed): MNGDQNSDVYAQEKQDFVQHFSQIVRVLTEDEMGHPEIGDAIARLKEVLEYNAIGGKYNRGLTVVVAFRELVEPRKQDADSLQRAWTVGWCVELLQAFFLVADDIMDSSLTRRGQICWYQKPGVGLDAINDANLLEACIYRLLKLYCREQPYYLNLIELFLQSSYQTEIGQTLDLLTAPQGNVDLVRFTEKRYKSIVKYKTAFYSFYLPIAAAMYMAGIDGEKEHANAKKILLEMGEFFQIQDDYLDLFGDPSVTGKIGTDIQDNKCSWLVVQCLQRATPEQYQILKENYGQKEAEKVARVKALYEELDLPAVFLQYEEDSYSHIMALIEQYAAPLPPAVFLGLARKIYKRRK

[4] = target: geranylgeranyl protein transferase I (GGTase I) (Homo sapiens, UniProt P49354+P53609)
osteoclasts in culture = conditions: cited from earlier work
[5] = system: protein prenylation in osteoclasts; assay: cells; conditions: Mus musculus, Osteoclast, read-out: IC50, labeling of prenylated proteins, osteoclasts, 15 μM lovastatin, 2 hours pretreatment, 3 hours of labeling
[6] = system: protein prenylation in osteoclasts; conditions: at 60 μM
sterol synthesis = conditions: read-out: IC50, block of sterol synthesis; incorporation of 14C-MVA into sterol, rat liver cell-free system; cited from earlier work
[7] = system: mevalonate-derived non-saponifiable lipids in osteoclasts; conditions: alendronate 0-60 μM
[8] = target: Farnesyl protein transferase (FTase) (Homo sapiens, UniProt P49354+P49356)
[9] = system: mevalonate-derived non-saponifiable lipids in osteoclasts; assay: cells; conditions: Mus musculus, Osteoclast, read-out: IC50, incorporation of label from MVL into non-saponifiable lipids, osteoclasts, 2 hours pretreatment, 3 hours of labeling
[10] = target: T2, human recombinant farnesyl diphosphate synthase; assay: biochemical

Chain of geranylgeranyl protein transferase II (GGTase II) (Q92696 whole entry): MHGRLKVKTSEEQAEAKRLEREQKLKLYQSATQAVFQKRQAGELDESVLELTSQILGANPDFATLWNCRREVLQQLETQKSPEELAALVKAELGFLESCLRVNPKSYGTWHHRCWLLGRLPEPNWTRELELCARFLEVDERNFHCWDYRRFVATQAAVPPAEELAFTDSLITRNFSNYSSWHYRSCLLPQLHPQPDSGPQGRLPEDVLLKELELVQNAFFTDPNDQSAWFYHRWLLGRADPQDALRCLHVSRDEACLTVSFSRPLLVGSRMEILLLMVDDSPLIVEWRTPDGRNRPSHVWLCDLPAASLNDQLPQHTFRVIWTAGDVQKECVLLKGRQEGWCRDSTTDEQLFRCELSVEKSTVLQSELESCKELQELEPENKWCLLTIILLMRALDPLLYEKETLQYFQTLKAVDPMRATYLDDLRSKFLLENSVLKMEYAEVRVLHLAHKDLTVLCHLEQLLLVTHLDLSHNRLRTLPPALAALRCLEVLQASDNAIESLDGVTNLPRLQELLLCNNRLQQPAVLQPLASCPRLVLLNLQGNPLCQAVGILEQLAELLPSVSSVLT
Chain of geranylgeranyl protein transferase II (GGTase II) (P53611 whole entry): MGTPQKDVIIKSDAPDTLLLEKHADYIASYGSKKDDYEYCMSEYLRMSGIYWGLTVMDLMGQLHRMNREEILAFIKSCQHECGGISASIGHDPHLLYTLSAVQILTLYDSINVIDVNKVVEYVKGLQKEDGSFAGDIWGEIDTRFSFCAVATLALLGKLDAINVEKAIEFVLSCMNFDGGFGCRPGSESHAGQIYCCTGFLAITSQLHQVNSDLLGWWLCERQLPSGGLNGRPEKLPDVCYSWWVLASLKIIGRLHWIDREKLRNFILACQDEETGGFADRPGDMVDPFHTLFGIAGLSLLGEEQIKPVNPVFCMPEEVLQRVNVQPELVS

**Q.** For `O=P(O)(O)C(O)(CCN1CCCC1)P(=O)(O)O` [EB 1053, 1-hydroxy-3-(1-pyrrolidinyl)-propylidene-1,1-bisphosphonic acid], which “inhibition of squalene synthase (in words)” value [1] is on record?
**A.** The value was “potent, nanomolar inhibitors”.

**Q.** For `O=P(O)(O)C(NC1CCCCCC1)P(=O)(O)O` [YM 175, Cycloheptylaminomethylene-1,1-bisphosphonic acid], which “inhibition of squalene synthase (in words)” value [1] is on record?
**A.** Its value is “potent, nanomolar inhibitors”.

**Q.** With `NCCCC(O)(P(=O)(O)O)P(=O)(O)O` [alendronate, 4-amino-1-hydroxybutylidene-1,1-bisphosphonic acid monosodium trihydrate] as the molecule, how does the “inhibition of GGTase II (in words)” value [2] read?
**A.** Its value is “not inhibited”.

**Q.** What about the “inhibition of FPP synthase (in words)” value [3] of the same molecule?
**A.** Its value is “effectively inhibit”.

**Q.** What about the “inhibition of GGTase I (in words)” value [4] of the same molecule?
**A.** Its value is “not inhibited”.

**Q.** What about the “osteoclast formation and bone resorption (in words)” value (osteoclasts in culture) of the same molecule?
**A.** Its value is “inhibited”.

**Q.** And the IC50 [5]?
**A.** The IC50 was ~15 µM.

**Q.** What about the “labeling of prenylated proteins (in words)” value [6] of the same molecule?
**A.** The value was “essentially disappears”.

**Q.** And the IC50 (sterol synthesis)?
**A.** The IC50 was 168 nM.

**Q.** And the “lowering of incorporation of label from MVL into non-saponifiable lipids” value [7]?
**A.** Its value is “up to 80%”.

**Q.** And the “inhibition of squalene synthase (in words)” value [1]?
**A.** The value was “comparatively little effect”.

**Q.** What about the “inhibition of FTase (in words)” value [8] of the same molecule?
**A.** The value was “not inhibited”.

**Q.** And the IC50 [9]?
**A.** The IC50 was ~15 µM.

**Q.** With `O=P(O)(O)C(Cl)(Cl)P(=O)(O)O` [clodronate, 1,1-dichloromethylene-1,1-diphosphonic acid] as the molecule, how does the “inhibition of FPP synthase (in words)” value [3] read?
**A.** Its value is “no inhibition observed; also recorded: little or no effect”.

**Q.** For `CC(O)(P(=O)(O)O)P(=O)(O)O` [etidronate, 1-hydroxyethane-1,1-diphosphonic acid], which “inhibition of FPP synthase (in words)” value [3] is on record?
**A.** The value was “little or no effect”.

**Q.** And the IC50 [10]?
**A.** The IC50 was 80 µM.

**Q.** For `CC[C@H](C)C(=O)O[C@H]1C[C@@H](C)C=C2C=C[C@H](C)[C@H](CC[C@@H]3C[C@@H](O)CC(=O)O3)[C@H]21` [lovastatin], which “osteoclast formation and bone resorption (in words)” value (osteoclasts in culture) is on record?
**A.** Its value is “inhibited”.

**Q.** With `NCCC(O)(P(=O)(O)O)P(=O)(O)O` [pamidronate, 3-amino-1-hydroxypropylidene-1,1-bisphosphonic acid] as the molecule, how does the “inhibition of FPP synthase (in words)” value [3] read?
**A.** Its value is “effectively inhibit”.

**Q.** And the IC50 (sterol synthesis)?
**A.** The IC50 was 420 nM.

**Q.** What about the “inhibition of squalene synthase (in words)” value [1] of the same molecule?
**A.** Its value is “comparatively little effect”.
